Reference: ChEMBL document CHEMBL3045388, “Sensitivity of Podosphaera aphanis isolates to DMI fungicides: distribution and reduced cross-sensitivity” (Pest Manag Sci, 2010)
In brackets after ≈: the same amount, converted by molar mass.

Tests used:
Assay type in all cases: functional, organism-based
[1] = system: Podosphaera aphanis; assay: Antifungal activity against Podosphaera aphanis isolate SOD in Darselect leaf disks after 8 days; conditions: 192 h
[2] = system: Podosphaera aphanis; assay: Antifungal activity against Podosphaera aphanis isolate DAR18 in Darselect leaf disks after 8 days; conditions: isolate DAR18, 192 h
[3] = system: Podosphaera aphanis; assay: Antifungal activity against Podosphaera aphanis isolate CAM in Darselect leaf disks after 8 days; conditions: 192 h
[4] = system: Podosphaera aphanis; assay: Antifungal activity against Podosphaera aphanis isolate PAJ in Darselect leaf disks after 8 days; conditions: 192 h
[5] = system: Podosphaera aphanis; assay: Antifungal activity against Podosphaera aphanis isolate GUI in Darselect leaf disks after 8 days; conditions: 192 h
[6] = system: Podosphaera aphanis; assay: Antifungal activity against Podosphaera aphanis isolate MEP in Darselect leaf disks after 8 days; conditions: 192 h
[7] = system: Podosphaera aphanis; assay: Antifungal activity against Podosphaera aphanis isolate SOC in Darselect leaf disks after 8 days; conditions: 192 h
[8] = system: Podosphaera aphanis; assay: Antifungal activity against Podosphaera aphanis isolate SAG in Darselect leaf disks after 8 days; conditions: 192 h
[9] = system: Podosphaera aphanis; assay: Antifungal activity against Podosphaera aphanis isolate SIL in Darselect leaf disks after 8 days; conditions: 192 h
[10] = system: Podosphaera aphanis; assay: Antifungal activity against Podosphaera aphanis isolate AVI in Darselect leaf disks after 8 days; conditions: 192 h
[11] = system: Podosphaera aphanis; assay: Antifungal activity against Podosphaera aphanis isolate HOR in Darselect leaf disks after 8 days; conditions: 192 h
[12] = system: Podosphaera aphanis; assay: Antifungal activity against Podosphaera aphanis isolate ABA in Darselect leaf disks after 8 days; conditions: 192 h
[13] = system: Podosphaera aphanis; assay: Antifungal activity against Podosphaera aphanis isolate ART in Darselect leaf disks after 8 days; conditions: 192 h
[14] = system: Podosphaera aphanis; assay: Antifungal activity against Podosphaera aphanis isolate SOU in Darselect leaf disks after 8 days; conditions: 192 h
[15] = system: Podosphaera aphanis; assay: Antifungal activity against Podosphaera aphanis isolate PES in Darselect leaf disks after 8 days; conditions: 192 h
[16] = system: Podosphaera aphanis; assay: Antifungal activity against Podosphaera aphanis isolate MAR in Darselect leaf disks after 8 days; conditions: 192 h
[17] = system: Podosphaera aphanis; assay: Antifungal activity against Podosphaera aphanis isolate LI1 in Darselect leaf disks after 8 days; conditions: isolate LI1, 192 h
[18] = system: Podosphaera aphanis; assay: Antifungal activity against Podosphaera aphanis isolate BRE in Darselect leaf disks after 8 days; conditions: 192 h
[19] = system: Podosphaera aphanis; assay: Antifungal activity against Podosphaera aphanis isolate LBP in Darselect leaf disks after 8 days; conditions: 192 h
[20] = system: Podosphaera aphanis; assay: Antifungal activity against Podosphaera aphanis isolate MEG in Darselect leaf disks after 8 days; conditions: 192 h
[21] = system: Podosphaera aphanis; assay: Antifungal activity against Podosphaera aphanis isolate VIR in Darselect leaf disks after 8 days; conditions: 192 h
[22] = system: Podosphaera aphanis; assay: Antifungal activity against Podosphaera aphanis isolate BRA in Darselect leaf disks after 8 days; conditions: 192 h
[23] = system: Podosphaera aphanis; assay: Antifungal activity against Podosphaera aphanis isolate DOU in Darselect leaf disks after 8 days; conditions: 192 h
[24] = system: Podosphaera aphanis; assay: Antifungal activity against Podosphaera aphanis isolate DAR1 in Darselect leaf disks after 8 days; conditions: isolate DAR1, 192 h

CCCCC(C#N)(Cn1cncn1)c1ccc(Cl)cc1 (centres undefined) [MYCLOBUTANIL]
EC50 [1]: 13.1 µg/mL (≈ 45.4 µM)
MIC [1]: 21.5 µg/mL (≈ 74.5 µM)
EC50 [2]: 14.7 µg/mL (≈ 50.8 µM)
MIC [2]: 31 µg/mL (≈ 107 µM)
EC50 [3]: 2.6 µg/mL (≈ 9 µM)
MIC [3]: 5.5 µg/mL (≈ 19 µM)
EC50 [4]: 3 µg/mL (≈ 10.4 µM)
MIC [4]: 6.9 µg/mL (≈ 23.9 µM)
EC50 [5]: 1.15 µg/mL (≈ 3.98 µM)
MIC [5]: 2.35 µg/mL (≈ 8.14 µM)
EC50 [6]: 0.8 µg/mL (≈ 2.77 µM)
MIC [6]: 3 µg/mL (≈ 10.4 µM)
EC50 [7]: 6.45 µg/mL (≈ 22.3 µM)
MIC [7]: 26 µg/mL (≈ 90 µM)
EC50 [8]: 1.7 µg/mL (≈ 5.89 µM)
MIC [8]: 5.33 µg/mL (≈ 18.5 µM)
EC50 [9]: 2 µg/mL (≈ 6.93 µM)
MIC [9]: 6.5 µg/mL (≈ 22.5 µM)
EC50 [10]: 0.5 µg/mL (≈ 1.73 µM)
MIC [10]: 2 µg/mL (≈ 6.93 µM)
EC50 [11]: 4.25 µg/mL (≈ 14.7 µM)
MIC [11]: 10.8 µg/mL (≈ 37.2 µM)
EC50 [12]: 3.75 µg/mL (≈ 13 µM)
MIC [12]: 9 µg/mL (≈ 31.2 µM)
EC50 [13]: 3.9 µg/mL (≈ 13.5 µM)
MIC [13]: 10.7 µg/mL (≈ 37.1 µM)
EC50 [14]: 10 µg/mL (≈ 34.6 µM)
MIC [14]: 23 µg/mL (≈ 79.6 µM)
EC50 [15]: < 0.1 µg/mL
MIC [15]: < 0.1 µg/mL
EC50 [16]: 5.5 µg/mL (≈ 19 µM)
MIC [16]: 16 µg/mL (≈ 55.4 µM)
EC50 [17]: 3.6 µg/mL (≈ 12.5 µM)
MIC [17]: 8.5 µg/mL (≈ 29.4 µM)
EC50 [18]: 5.3 µg/mL (≈ 18.4 µM)
MIC [18]: 13.7 µg/mL (≈ 47.4 µM)
EC50 [19]: 4.8 µg/mL (≈ 16.6 µM)
MIC [19]: 12.5 µg/mL (≈ 43.3 µM)
EC50 [20]: 1 µg/mL (≈ 3.46 µM)
MIC [20]: 2.35 µg/mL (≈ 8.14 µM)
EC50 [21]: 1.8 µg/mL (≈ 6.23 µM)
MIC [21]: 5 µg/mL (≈ 17.3 µM)
EC50 [22]: 1.3 µg/mL (≈ 4.5 µM)
MIC [22]: 3 µg/mL (≈ 10.4 µM)
EC50 [23]: 8.9 µg/mL (≈ 30.8 µM)
MIC [23]: 15.5 µg/mL (≈ 53.7 µM)
EC50 [24]: 4.75 µg/mL (≈ 16.4 µM)
MIC [24]: 15 µg/mL (≈ 51.9 µM)

CCCC(Cn1cncn1)c1ccc(Cl)cc1Cl (centres undefined) [PENCONAZOLE]
EC50 [2]: 3.5 µg/mL (≈ 12.3 µM)
MIC [2]: 9 µg/mL (≈ 31.7 µM)
EC50 [3]: 0.9 µg/mL (≈ 3.17 µM)
MIC [3]: 2.5 µg/mL (≈ 8.8 µM)
EC50 [4]: 2.9 µg/mL (≈ 10.2 µM)
MIC [4]: 3.9 µg/mL (≈ 13.7 µM)
EC50 [5]: 0.9 µg/mL (≈ 3.17 µM)
MIC [5]: 2.1 µg/mL (≈ 7.39 µM)
EC50 [6]: 0.3 µg/mL (≈ 1.06 µM)
MIC [6]: 0.8 µg/mL (≈ 2.82 µM)
EC50 [7]: 3.2 µg/mL (≈ 11.3 µM)
MIC [7]: 7.9 µg/mL (≈ 27.8 µM)
EC50 [8]: 0.28 µg/mL (≈ 0.985 µM)
MIC [8]: 0.5 µg/mL (≈ 1.76 µM)
EC50 [9]: 0.4 µg/mL (≈ 1.41 µM)
MIC [9]: 1 µg/mL (≈ 3.52 µM)
EC50 [10]: 0.58 µg/mL (≈ 2.04 µM)
MIC [10]: 1.8 µg/mL (≈ 6.33 µM)
EC50 [11]: 0.8 µg/mL (≈ 2.82 µM)
MIC [11]: 2 µg/mL (≈ 7.04 µM)
EC50 [12]: 1.25 µg/mL (≈ 4.4 µM)
MIC [12]: 2.85 µg/mL (≈ 10 µM)
EC50 [13]: 2.2 µg/mL (≈ 7.74 µM)
MIC [13]: 6.6 µg/mL (≈ 23.2 µM)
EC50 [14]: 2.1 µg/mL (≈ 7.39 µM)
MIC [14]: 9.8 µg/mL (≈ 34.5 µM)
EC50 [15]: 0.04 µg/mL (≈ 0.141 µM)
MIC [15]: 0.15 µg/mL (≈ 0.528 µM)
EC50 [16]: 2.55 µg/mL (≈ 8.97 µM)
MIC [16]: 10 µg/mL (≈ 35.2 µM)
EC50 [17]: 2.45 µg/mL (≈ 8.62 µM)
MIC [17]: 5.15 µg/mL (≈ 18.1 µM)
EC50 [18]: 1.9 µg/mL (≈ 6.69 µM)
MIC [18]: 6 µg/mL (≈ 21.1 µM)
EC50 [19]: 4.2 µg/mL (≈ 14.8 µM)
MIC [19]: 9.5 µg/mL (≈ 33.4 µM)
EC50 [20]: 0.43 µg/mL (≈ 1.51 µM)
MIC [20]: 1 µg/mL (≈ 3.52 µM)
EC50 [21]: 2 µg/mL (≈ 7.04 µM)
MIC [21]: 5 µg/mL (≈ 17.6 µM)
EC50 [22]: 1.48 µg/mL (≈ 5.21 µM)
MIC [22]: 2.6 µg/mL (≈ 9.15 µM)
EC50 [23]: 1.3 µg/mL (≈ 4.57 µM)
MIC [23]: 2 µg/mL (≈ 7.04 µM)
EC50 [24]: 2 µg/mL (≈ 7.04 µM)
MIC [24]: 3 µg/mL (≈ 10.6 µM)
